Marks after values point to notes of the source that are not given here.
Assays:
aortic ring explants [1] = assay: rat aortic ring sprouting assay (ex vivo neovessel sprouting); format: cell-based; details: aortic rings cultured with PEDF peptide, in words
ischemic hindlimbs = assay: hindlimb ischemia model, laser Doppler perfusion imaging of limb blood perfusion; format: in vivo, C57BL/6 wild-type mice
Method: (§1) 6-week-old female C57BL/6 wild-type mice were anesthetized by an intraperitoneal injection of a mixture of zoletil (6 mg/kg) and xylazine (3 mg/kg). Hair was removed from the hindquarter with a depilating cream. To establish hindlimb ischemia, unilateral external iliac and femoral arteries and veins were ligated, cut, and excised. After surgery, the mice were randomly assigned to several experimental groups (n=6, each group) and treated as follows. In the blank control group, the mice were treated with 50 μl of blank alginate gel, whereas in the bolus control group, the mice received the bolus formulation containing 29-mer. In the PEDF peptide/alginate gel treatment groups, the mice received 50 μl of the sustained-release formulation, which comprised either 29-mer, 24-mer, or 20-mer. Additionally, in a PEDF 18-mer control group, mice were treated with a sustained-release formulation containing a PEDF 18-mer peptide. Treatments were applied by way of a single intramuscular injection to the gracilis muscle immediately after femoral artery and vein excision operation. The incision was closed after the wound was irrigated with sterile saline.
A laser Doppler perfusion imaging (LDPI) analyzer (Moor Instruments, USA) was used to quantify hindlimb blood perfusion before surgery (pre OP), immediately after surgery (post OP), and over time after surgery. To minimize vasoconstriction by anesthetic heat loss, animals were kept on a heating plate at 37° C. for 5 min before measurement. Representative LDPI images illustrating the blood perfusion of ischemic hindlimbs over a time period of 4 weeks were provided in FIG. 2 in which dark blue color represents low blood flow. Blood perfusion is expressed as LDPI index representing the ratio of operated (ischemic) versus non-operated (non-ischemic) limb blood flow of the same mouse, and the results were summarized in FIG. 3 and Table 1 (n 6).

[2] = tested on: adductor magnus muscle arterioles; assay: hindlimb ischemia model, arteriole density (α-SMA) in adductor magnus muscle; format: in vivo, C57BL/6 wild-type mice; details: two weeks after surgery, sustained-release formulation (Bolus: bolus 29-mer)
Method: The small artery densities (α-SMA positive cells surrounding the whole circumference of the vessel) were measured and images were taken from 10 randomly-selected areas of adductor magnus muscle (200× magnification) in each sample, and blinded quantification was performed in triplicate by manually counting within each section; values from five sections were then averaged and expressed as arteriole density per mm^2.
as §1
To investigate the arteriogenic effect of the present sustained-release formulation, adductor magnus muscles (located at the same level as femoral artery excision and in which arteriogenesis responsible for establishing collateral circulation is expected to be found) were harvested from animals in each experimental condition, two weeks after the surgery. Arterioles in muscle cross sections were identified by immunohistological staining for vascular smooth muscle cells (α-SMA; brown), and nuclei were labeled with hematoxylin; representative photographs were provided in FIG. 5. Quantitative analysis was also performed and the results were summarized in Table 3, and the data were expressed as α-SMA-positive arterioles per mm^2 in the peri-injury region.

tibialis anterior muscle = assay: hindlimb ischemia model, tibialis anterior muscle necrosis/fibrosis and centrally nucleated fibers; format: in vivo, C57BL/6 wild-type mice; details: two weeks after surgery, sustained-release formulation (Bolus: bolus 29-mer)
Method: The gracilis, adductor magnus, soleus, and tibialis muscles were fixed in 4% paraformaldehyde, dehydrated with graded ethanol series, and paraffinized. Fixed samples were de-paraffinized in xylene and rehydrated in a graded series of ethanol. Tissues were sliced into 5-μm sections. General histology was performed using H&E dye.
To ascertain the number of centrally nucleated muscle fibers, sections were stained with H&E and then photographed as described above. At least 100 stained fibers were randomly chosen from each photo. Muscle fibers were judged centrally nucleated if one or more nuclei were not located at the periphery of the fiber. The data were expressed as a % of the total number of muscle fibers counted. Results were evaluated from 6 sections per muscle section, and 10 mice at each group.
as §1
In most hindlimb ischemia models, tissue necrosis generally occurs in the muscles below the knee. For example, tibialis anterior muscle, which is distant to the gracilis muscle where the treatment was administered, often undergoes extensive necrosis with regeneration after femoral artery excision. The intensity of Masson's trichrome blue color staining depended on the content of collagen fibers in the investigated tissue, and fibrosis is the result of necrosis. […] Results from representative samples are illustrated in FIGS. 4A and 4B.
Statistical analyses regarding injured area (necrotic area+fibrotic area) and numbers of centrally nucleated fibers were also performed at two weeks after the surgery, and the results were summarized in Table 2. The injured area is expressed as the percent of total stained area (%), and the centrally nucleated fibers is expressed as the total number of muscle fibers counted (%).

aortic ring explants [3] = assay: rat aortic ring sprouting assay (ex vivo neovessel sprouting); format: cell-based; details: day 4, 50 ng/ml PEDF peptide, 50 ng/ml VEGF-A, 20 ng/ml FGF-2, MCDB131, 1% FBS, Matrigel
Method: To further confirm the neovessel development promoted by PEDF peptides, rat aortic ring sprouting assay was performed. Thoracic aortas were removed from euthanized rats and gently stripped of peri-aortic fibroadipose tissue. Aortas were sectioned into about 2-mm length rings, which were then embedded in a growth factor-reduced Matrigel. Gels containing the aortic rings were polymerized in 12-well plates incubated at 37° C. for 30 minutes. 1 ml of MCDB131 medium supplemented with 100 units/ml penicillin and […] streptomycin, 1% FBS, and a supplemental agent (50 ng/ml VEGF-A, 20 ng/ml FGF-2, or 50 ng/ml 29-mer, 24-mer, 20-mer, Mo 29-mer, Mo 20-mer, 25-mer, or 18-mer) were added to the Matrigel-containing explants. The cultures were propagated at 37° C. in a humidified incubator for up to 4 days, with media changes every other day. Neovessel sprouting was assessed until day 4 using an inverted microscope platform (Leica) with bright-field optics; representative photographs were provided in FIG. 6. Quantification of neovessel sprouting was assessed using Image-Pro Plus 6.0 software (Dendrites program). The experiment was repeated in triplicate.

tendon stem cells (TSCs) = assay: TSCs proliferation assay (BrdU labeling) in vitro; format: cell-based, New Zealand White rabbits; details: TSCs passage 4; 50 nM peptide, 5% FBS, 24 hours; BrdU pulse-labeling
Method: New Zealand White rabbits (6-8 months old, 3.0-4.0 kg) were used in this study. Achilles tendons were removed from the rabbits by cutting through their bony attachments. The tendon sheath was stripped away and the core portion of the tendons was minced into small fragments. Each 100 mg of fragment was then digested in a solution containing 3 mg/mL of type I collagenase and 4 mg/mL of dispase in 1 ml Dulbecco's Modified Eagle Medium (DMEM-high glucose) at 37° C. for 2 hours. The resultant cell suspension was centrifuged at 1,000 rpm for 15 minutes to obtain a cell pellet which was then resuspended in a growth medium consisting of DMEM supplemented with 10% heat inactivated fetal bovine serum (FBS), 100 μM 2-mercaptoethanol, and 100 U/ml penicillin and 100 μg/ml streptomycin. For passage, near-confluent cells were harvested with 0.25% trypsin and then 1×10^5 subcultured cells were further cultured in medium.
The TSCs at passage 4 were seeded at gelatin-coated slide in a 6-well plate at a density of 2×10^5 cells per well and cultured in growth medium (DMEM+10% FBS) for 24 hours before being replaced by a basal growth medium with 5% FBS only (control group) or with 5% FBS plus an additional 50 nM of PEDF-derived peptide (i.e., 29-mer, 24-mer, 20-mer, 18-mer, Mo 29-mer, or Mo 20-mer) for 24 hours. For BrdU labeling assay, BrdU (final concentration, 10 μM) was added to the culture for 4 hours. After fixing with 4% paraformaldehyde, cells were exposed to cold methanol for 2 minutes, and then treated with 1 N HCl at RT for 1 hour before performing immunofluorescence. The phenotype of passage 4 TSC was determined by immunocytochemistry of nucleostemin and type I collagen. Almost all of expanded TSCs were nucleostemin and type I collagen-double positive cells.
It has been reported that during the tendon healing process, tendon stem cells (TSCs) would proliferate and differentiate into tenocytes. To investigate whether present PEDF peptides would induce the proliferation of TSCs in vitro, tendons stem cells were isolated and cultured as described in the “Materials and Methods” section. The purity of TSCs was confirmed by a TSC marker, nucleostemin, as well as the expression of type I collagen by TSCs; together, these analyses indicated a TSC purity of near 100% (data not shown). The proliferation of TSCs was confirmed by BrdU pulse-labeling for 2 hours. Quantitative analysis of the level of BrdU-positive cells was performed as described above, and the results were summarized in Table 8.

With “EQRTESIIHRALYYDLIS [18-mer, control PEDF peptide without the SLGA residues, reference compound]” the “neovessel phenotype by dual immunofluorescence (α-SMA / isolectin B4)” value (aortic ring explants [1]) was “barely detected”, the “Ischemic/Non-ischemic Perfusion Ratio (%) 7 days” value (ischemic hindlimbs; 7 days after surgery, 50 μl sustained-release alginate gel formulation, 10 μM peptide (Bolus: bolus formulation of 29-mer), single intramuscular injection to gracilis muscle) was 23.8 ± 4.5% and the “Ischemic/Non-ischemic Perfusion Ratio (%) 14 days” value (ischemic hindlimbs; 14 days after surgery, sustained-release formulation (Bolus: bolus 29-mer), single intramuscular injection) was 30.3 ± 0.94%. For the same substance, the “Ischemic/Non-ischemic Perfusion Ratio (%) 21 days” value (ischemic hindlimbs; 21 days after surgery, sustained-release formulation (Bolus: bolus 29-mer), single intramuscular injection) was 46.8 ± 4.3%, the “Ischemic/Non-ischemic Perfusion Ratio (%) 28 days” value (ischemic hindlimbs; 28 days (four weeks) after surgery, sustained-release formulation (Bolus: bolus 29-mer), single intramuscular injection) was 52.8 ± 7.4% and the “Ischemic/Non-ischemic Perfusion Ratio (%) Pre OP” value (ischemic hindlimbs; before surgery (baseline), LDPI) was 104.5 ± 2.5%. For the same substance, the “Ischemic/Non-ischemic Perfusion Ratio (%) Post OP” value (ischemic hindlimbs; immediately after surgery, LDPI) was 7.5 ± 0.67%, the “blood perfusion as compared with blank control” value (ischemic hindlimbs; over 4 weeks after surgery, in words) was “did not exhibit improved blood perfusion” and the “Arteriole Density per mm^2 (α-SMA-positive arterioles)” value [2] was 4.0 ± 0.58 per mm^2. For the same substance, the “Centrally nucleated fibers (%)” value (tibialis anterior muscle) was 20.5 ± 3.3% and the “Injured Area (%) (necrotic area + fibrotic area, percent of total stained area)” value (tibialis anterior muscle) was 78.5 ± 5.1%.
“FGF2: well-known angiogenic factor used as positive control, 20 ng/ml [reference compound]” was tested, and the “Neovessel Sprouting Fold” value (aortic ring explants [3]) was 3.5* fold of untreated aortic ring and the “Neovessel Sprouting Fold” value (aortic ring explants [3]; listed as FGF-2) was ~3.5 fold of untreated aortic ring.
In the case of “SLGAEHRTESVIHRALYYDL [Mo 20-mer, synthetic peptide derived from mouse PEDF]”, the “Neovessel Sprouting Fold” value (aortic ring explants [3]) is reported as 6.4* fold of untreated aortic ring and the “BrdU Labeling Index (%)” value (tendon stem cells (TSCs)) is reported as 31.8 ± 3.1 %.
For “SLGAEHRTESVIHRALYYDLITNPDIHST [Mo 29-mer, synthetic peptide derived from mouse PEDF]”, the “Neovessel Sprouting Fold” value (aortic ring explants [3]) was 6.1* fold of untreated aortic ring and the “BrdU Labeling Index (%)” value (tendon stem cells (TSCs)) was 33.2 ± 6.6 %.
